Our source for the Km values is paper PMC9823191, “Production, characterization and techno-economic evaluation of Aspergillus fusant L-asparaginase” (AMB Express, 2023).

Structures are written as SMILES.

The subject of the experiment is T1, Fusant-06 L-ASNase.
T1 construct: native extracellular enzyme from fusant fermentation broth; PEG/citrate ATPS then Sephadex G-100; may be recombined from both parents
Briefly: ammonia release (Imada assay); Lineweaver-Burk plot. The format is biochemical. The settings on record: L-asparagine 0.005–1.28 mM; 5 µg/mL (0.043 µM) enzyme; optimum conditions (pH and temperature not stated for the kinetics).

Regarding `NC(=O)C[C@H](N)C(=O)O` [L-asparagine], the Km turned out to be 66.7 µM.
